pIC50: −log10 of the molar value. ≈ marks a conversion by molar mass, not a printed value.

This note sets out measurements from ChEMBL document CHEMBL3593232, “Ring-substituted 8-hydroxyquinoline-2-carboxanilides as potential antimycobacterial agents” (Bioorg Med Chem, 2015).

The subject of series [1] is Mycobacterium tuberculosis. Kind of series: microbe, parasite or virus in culture. Particulars: H37Ra ATCC 25177, 168 h.
Description: Antimycobacterial activity against Mycobacterium tuberculosis H37Ra ATCC 25177 assessed as reduction in bacterial growth incubated at 37 degC for 7 days by alamar blue dye based assay
A short description of series [2]: Lipophilicity assessed as capacity factor logK of the compound by HPLC method. The format is physicochemical.
Series [3] has as its system Mycobacterium avium subsp. paratuberculosis. The format is functional. Particulars: isolate CIT03, 264 h.
The test system of series [4] is THP-1. Briefly: Cytotoxicity against human THP1 cells assessed as reduction in cell viability incubated for 24 hrs by WST1 dye based assay. As to conditions: THP-1, 24 h. Background: Formazan colour is commonly taken as a measure of viable cells.
Series [5] concerns Mycobacterium avium complex sp. The format is functional. As to conditions: isolate CIT19/06, 120 h.
Series [6] has as its system Mycobacterium tuberculosis. The format is functional, H37Ra ATCC 25177.

Regarding `O=C(Nc1ccccc1)c1ccc2cccc(O)c2n1`, the MIC90 in series [1], in series [3] and in series [5] was 30 µM (≈ 7.93 µg/mL) each time. Also, the “log K” value in series [2] was 0.76. Also, the pIC50 in series [4] is less than 4.52.
On to `O=C(Nc1ccc(F)cc1)c1ccc2cccc(O)c2n1`, for which the MIC90 in series [1], in series [3] and in series [5] was 53 µM (≈ 15 µg/mL) throughout. Also, the “log K” value in series [2] turned out to be 0.8598. The negative logarithm of the IC50 (pIC50) in series [4] is less than 4.52.
Take `COc1ccccc1NC(=O)c1ccc2cccc(O)c2n1`: the MIC90 in series [1] turned out to be 27 µM (≈ 7.95 µg/mL); in series [3], 51 µM (≈ 15 µg/mL); in series [5] it was 51 µM (≈ 15 µg/mL). For the same compound, in series [2], the “log K” value is given as 0.7935. The pIC50 in series [4] was less than 4.52.
On to `COc1cccc(NC(=O)c2ccc3cccc(O)c3n2)c1`, for which the MIC90 in series [1], in series [3] and in series [5] was 27 µM (≈ 7.95 µg/mL) in each case. This compound also showed an Activity in series [6] of 30.9%. For the same compound, in series [2], the “log K” value was found to be 0.8164. The pIC50 in series [4] was less than 4.52.
On to `COc1ccc(NC(=O)c2ccc3cccc(O)c3n2)cc1`, for which the results for the MIC90 in series [1], in series [3] and in series [5] were 849 µM (≈ 250 µg/mL), 849 µM (≈ 250 µg/mL) and 425 µM (≈ 125 µg/mL), respectively. Also, the “log K” value in series [2] was 0.7129. The negative logarithm of the IC50 (pIC50) in series [4] was less than 4.52.
Regarding `Cc1ccccc1NC(=O)c1ccc2cccc(O)c2n1`, the MIC90 in series [1] is 29 µM (≈ 8.07 µg/mL); in series [3], 29 µM (≈ 8.07 µg/mL); in series [5], 54 µM (≈ 15 µg/mL). Besides, in series [2], the “log K” value is 0.6944. For the same compound, the pIC50 in series [4] was less than 4.52.
Take `Cc1cccc(NC(=O)c2ccc3cccc(O)c3n2)c1`: the MIC90 in series [1], in series [3] and in series [5] was 29 µM (≈ 8.07 µg/mL) each time. The compound further gave an Activity in series [6] of 66.4%. The “log K” value in series [2] was found to be 0.9686. Also, the negative logarithm of the IC50 (pIC50) in series [4] was less than 4.52.
In the case of `Cc1ccc(NC(=O)c2ccc3cccc(O)c3n2)cc1`, the MIC90 worked out at 29 µM (≈ 8.07 µg/mL) in series [1], 29 µM (≈ 8.07 µg/mL) in series [3] and 54 µM (≈ 15 µg/mL) in series [5]. In addition, the “log K” value in series [2] turned out to be 0.9521. Further, in series [4], the pIC50 is less than 4.52.
As for `O=C(Nc1ccccc1F)c1ccc2cccc(O)c2n1`, the MIC90 in series [1] turned out to be 28 µM (≈ 7.9 µg/mL); in series [3], 28 µM (≈ 7.9 µg/mL); in series [5] it was 53 µM (≈ 15 µg/mL). The Activity in series [6] amounted to 26.9%. Moreover, the “log K” value in series [2] is 0.6806. The pIC50 in series [4] was less than 4.52.
For the compound `O=C(Nc1cccc(F)c1)c1ccc2cccc(O)c2n1`, the MIC90 in series [1], in series [3] and in series [5] was 53 µM (≈ 15 µg/mL) in each case. Also, in series [2], the “log K” value came out at 0.942. The pIC50 in series [4] is less than 4.52.
`O=C(Nc1ccccc1Cl)c1ccc2cccc(O)c2n1`: the MIC90 in series [1] was found to be 27 µM (≈ 8.07 µg/mL); in series [3], 27 µM (≈ 8.07 µg/mL); in series [5], 837 µM (≈ 250 µg/mL). Moreover, the Activity in series [6] is listed as 21.4%. For the same compound, in series [2], the “log K” value is recorded as 0.9566. Besides, the pIC50 in series [4] was less than 4.52.
For the compound `O=C(Nc1cccc(Cl)c1)c1ccc2cccc(O)c2n1`, the MIC90 in series [1], in series [3] and in series [5] was 50 µM (≈ 14.9 µg/mL) each time. Also, the “log K” value in series [2] was determined as 1.1718. Besides, the pIC50 in series [4] was less than 4.52.
In the case of `O=C(Nc1ccc(Cl)cc1)c1ccc2cccc(O)c2n1`, the MIC90 in series [1] is 837 µM (≈ 250 µg/mL); in series [3], 837 µM (≈ 250 µg/mL); in series [5] it was 50 µM (≈ 14.9 µg/mL). In addition, the “log K” value in series [2] stood at 1.1543. Further, in series [4], the pIC50 is less than 4.52.
For `O=C(Nc1ccccc1Br)c1ccc2cccc(O)c2n1`, the MIC90 was 23 µM (≈ 7.89 µg/mL) in series [1], 23 µM (≈ 7.89 µg/mL) in series [3] and 729 µM (≈ 250 µg/mL) in series [5]. In series [6], this compound came in with an Activity of 26.9%. Further, the “log K” value in series [2] is reported as 1.0536. In addition, the pIC50 in series [4] was less than 4.52.
On to `O=C(Nc1cccc(Br)c1)c1ccc2cccc(O)c2n1`, for which the MIC90 in series [1], in series [3] and in series [5] was 44 µM (≈ 15.1 µg/mL) in each case. The “log K” value in series [2] is recorded as 1.2357. The pIC50 in series [4] is less than 4.52.
With `O=C(Nc1ccc(Br)cc1)c1ccc2cccc(O)c2n1`, the figures for the MIC90 in series [1], in series [3] and in series [5] were 729 µM (≈ 250 µg/mL), 729 µM (≈ 250 µg/mL) and 44 µM (≈ 15.1 µg/mL), respectively. Further, in series [2], the “log K” value was determined as 1.2347. In series [4], the pIC50 is less than 4.52.
In the case of `O=C(Nc1ccccc1C(F)(F)F)c1ccc2cccc(O)c2n1`, the MIC90 in series [1] is 24 µM (≈ 7.97 µg/mL); in series [3], 24 µM (≈ 7.97 µg/mL); in series [5], 752 µM (≈ 250 µg/mL). Moreover, the Activity in series [6] came out at 53.4%. The “log K” value in series [2] was 0.9147. Also, the pIC50 in series [4] was less than 4.52.
With `O=C(Nc1cccc(C(F)(F)F)c1)c1ccc2cccc(O)c2n1`, the MIC90 in series [1], in series [3] and in series [5] was 24 µM (≈ 7.97 µg/mL) each time. For the same compound, the Activity in series [6] amounted to 18.8%. Also, the “log K” value in series [2] was 1.3206. The pIC50 in series [4] was less than 4.52.
With `O=C(Nc1ccc(C(F)(F)F)cc1)c1ccc2cccc(O)c2n1`, the MIC90 in series [1], in series [3] and in series [5] was 24 µM (≈ 7.97 µg/mL) throughout. For the same compound, in series [6], the Activity is reported as 33.1%. The “log K” value in series [2] turned out to be 1.3653. The pIC50 in series [4] was less than 4.52.
For `O=C(Nc1ccccc1[N+](=O)[O-])c1ccc2cccc(O)c2n1`, the results for the MIC90 in series [1], in series [3] and in series [5] were 97 µM (≈ 30 µg/mL), 97 µM (≈ 30 µg/mL) and 808 µM (≈ 250 µg/mL), respectively. The “log K” value in series [2] was determined as 1.1277. In series [4], the pIC50 is less than 4.52.
For the compound `O=C(Nc1cccc([N+](=O)[O-])c1)c1ccc2cccc(O)c2n1`, the values for the MIC90 in series [1], in series [3] and in series [5] were 26 µM (≈ 8.04 µg/mL), 808 µM (≈ 250 µg/mL) and 808 µM (≈ 250 µg/mL), respectively. For the same compound, the Activity in series [6] is recorded as 7%. Moreover, in series [2], the “log K” value is reported as 0.9845. The pIC50 in series [4] is less than 4.52.
For the compound `O=C(Nc1ccc([N+](=O)[O-])cc1)c1ccc2cccc(O)c2n1`, the MIC90 in series [1] worked out at 26 µM (≈ 8.04 µg/mL); in series [3], 404 µM (≈ 125 µg/mL); in series [5] it was 808 µM (≈ 250 µg/mL). Further, the Activity in series [6] is on record as 17.3%. In addition, in series [2], the “log K” value amounted to 1.0495. For the same compound, the pIC50 in series [4] was less than 4.52.
As for `CO[C@H]1/C=C/O[C@@]2(C)Oc3c(C)c(O)c4c(O)c(c(/C=N/N5CCN(C)CC5)c(O)c4c3C2=O)NC(=O)/C(C)=C\C=C\[C@H](C)[C@H](O)[C@@H](C)[C@@H](O)[C@@H](C)[C@H](OC(C)=O)[C@@H]1C` [RIFAMPIN], the MIC90 worked out at 10 µM (≈ 8.23 µg/mL) in series [1], 109 µM (≈ 89.7 µg/mL) in series [3] and 10 µM (≈ 8.23 µg/mL) in series [5].

The pIC50 is −log10 of the IC50, conventionally taken in molar units.
